IC50 data for 32 compounds are collected here from US8686155B2, “Aurora kinase modulators and method of use” (Amgen Inc., priority 2006, dated 2014).

Read-outs that look alike come from different tables or passages of the source.

For one experiment, the target named is T1, AuroraA-TPX2 (Homo sapiens, UniProt O14965).
T1 construct: 20 μL of AuroraA-TPX2 KD GST; GST
T1 sequence (O14965 133-383 limits assumed): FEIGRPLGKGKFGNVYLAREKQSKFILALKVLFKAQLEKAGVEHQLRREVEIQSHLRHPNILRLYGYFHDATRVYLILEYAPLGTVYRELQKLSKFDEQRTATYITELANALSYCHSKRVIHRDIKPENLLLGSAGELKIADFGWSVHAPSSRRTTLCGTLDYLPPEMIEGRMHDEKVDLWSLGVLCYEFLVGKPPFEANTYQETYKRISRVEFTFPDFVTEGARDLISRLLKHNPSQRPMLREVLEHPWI
T1 sequence (Q9ULW0 1-43 partner limits assumed): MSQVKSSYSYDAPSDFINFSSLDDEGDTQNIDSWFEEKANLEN
Put plainly: AuroraA-TPX2 Homogeneous Time Resolved Fluorescent (HTRF) kinase assay. In kind it is biochemical. The protocol:
AuroraA-TPX2-Homogeneous Time Resolved Fluorescent (HTRF) Kinase Assay
The Aurora-A HTRF assay begins with Aurora-A in the presence of ATP phosphorylating the biotinylated peptide PLK. The reaction incubates for about 120 min. Detection reagents are added to quench the reaction. These agents stop the reaction by diluting out the enzyme and chelating the metals due to the presence of EDTA. After addition, the assay is incubated overnight to allow the detection reagents to equilibrate.
The final concentration of PLK is about 1 μM. […] Buffer conditions are as follows: 60 mM HEPES pH 7.5, 25 mM NaCl, 10 mM MgCl, 2 mM DTT, 0.05% BSA.
The assay is quenched and stopped with 160 μL of detection reagent. Detection reagents are as follows: Buffer made of 50 mM Tris, pH 7.5, 100 mM NaCl, 3 mM EDTA, 0.05% BSA, 0.1% Tween20. Added to this buffer prior to reading is Steptavidin allophycocyanin (SA-APC) at a final conc in the assay of 0.0005 mg/mL, and europilated anti-phosphoPLK Ab (Eu-anti-PLK) at a final conc of 0.02 nM.
The assay plate is read in either a Discovery or a RubyStar. The eu-anti-PLK is excited at 320 nm and emits at 615 nm to excite the SA-APC which in turn emits at 655 nm.
In general terms: TR-FRET usually uses a lanthanide donor and a delayed reading to cut background.

Another experiment deals with T2, AuroraB (Homo sapiens, UniProt Q96GD4).
T2 construct: 20 μL of AuroraB FL His; His
T2 sequence (Q96GD4 whole entry): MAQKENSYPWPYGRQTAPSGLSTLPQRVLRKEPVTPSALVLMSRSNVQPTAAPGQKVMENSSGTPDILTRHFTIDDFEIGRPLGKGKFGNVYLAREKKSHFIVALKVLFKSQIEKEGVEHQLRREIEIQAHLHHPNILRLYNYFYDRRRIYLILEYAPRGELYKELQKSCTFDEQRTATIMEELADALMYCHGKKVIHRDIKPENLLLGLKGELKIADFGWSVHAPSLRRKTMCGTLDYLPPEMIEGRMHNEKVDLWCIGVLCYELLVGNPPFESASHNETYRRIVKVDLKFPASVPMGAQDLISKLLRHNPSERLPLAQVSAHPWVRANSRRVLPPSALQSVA
The experiment can be described thus: AuroraB Homogeneous Time Resolved Fluorescent (HTRF) kinase assay. In kind it is biochemical. The protocol:
AuroraB-Homogeneous Time Resolved Fluorescent (HTRF) Kinase Assay:
The AuroraB HTRF assay begins with AuroraB in the presence of ATP phosphorylating the biotinylated peptide Histone H3. The reaction incubates for about 90 min. the reaction is quentched by addition of detection reagents, which stop the reaction by diluting out the enzyme and chelating the metals due to the presence of EDTA. After addition, the assay is incubated for about 60 min to allow detection reagents to equilibrate.
The AuroraB HTRF assay comprises 1 μL of compound in 100% DMSO, 20 μL of ATP and biotinylated Histone H3, and 20 μL of AuroraB FL His for a final volume of 41 μL. The final concentration of Histone H3 is 0.1 μM. The final concentration of ATP is 23 μM (Km(app)=23 μM+/−2.6) and the final concentration of AuroraB is 400 pM. Buffer conditions are as follows: 50 mM HEPES pH 7.5, 5 mM NaCl, 0.5 mM MgCl, 0.5 mM MnCl, 2 mM DTT, 0.05% BSA.
The assay is quenched and stopped with 160 μl, of detection reagent. Detection reagents are as follows: Buffer made of 50 mM Tris, pH 7.5, 100 mM NaCl, 3 mM EDTA, 0.05% BSA, 0.1% Tween20. Added to this buffer prior to reading is Steptavidin allophycocyanin (SA-APC) at a final conc in the assay of 0.001 mg/mL, and europilated anti-phosphoHistoneH3 Ab (Eu-anti-His H3) at a final conc of 0.064 nM.
The assay plate is read in either a Discovery or a RubyStar. The eu-anti-HisH3 is excited at 320 nm and emits at 615 nm to excite the SA-APC which in turn emits at 655 nm. The ratio of SA-APC at 655 nm (excited due to close proximity to the Eu-anti-H HisH3 because of phosphorylation of the peptide) to free Eu-anti-HisH3 at 615 nm will give substrate phosphorylation.

[1] abbreviates: class symbols, read-out: AurA/TPX2_IC50_IP (Avg).
Setting [2] is: class symbols, read-out: AurB_IC50_IP (Avg).
[3] abbreviates: ATP about 1 μM, biotinylated peptide PLK, read-out: average activity in the Aurora kinase A HTRF assay.
Setting [4] is: ATP 23 μM, biotinylated peptide Histone H3, read-out: average activity in the Aurora kinase B HTRF assay.
The mark [5] stands for this setting: numeric values, unit inferred, read-out: AurA/TPX2_IC50_IP (Avg).
[6] abbreviates: numeric values, unit inferred, read-out: AurB_IC50_IP (Avg).

Regarding `Cc1csc(-c2cc(C)c(Nc3ccc(Oc4ncccc4-c4ccncc4)cc3)nn2)c1` [compound 428], the IC50 at AuroraA-TPX2 (setting [1]) and on AuroraB (setting [2]) was not above 0.1 µM throughout. Take `COc1ccccc1-c1nnc(Nc2ccc(Oc3ncccc3-c3ccnc(N)n3)nc2)c2ccccc12` [compound 440]: the IC50 on AuroraA-TPX2 (setting [1]) and on AuroraB (setting [2]) was not above 0.1 µM throughout. As for `Nc1nccc(-c2cccnc2Oc2ccc(Nc3nnc(-c4ccccc4)c4ccccc34)cn2)n1` [compound 415], the IC50 on AuroraA-TPX2 (setting [1]) and at AuroraB (setting [2]) was not above 0.1 µM each time. For `c1ccc(-c2nnc(Nc3ccc(Oc4ncncc4-c4ccncc4)cc3)c3ccccc23)cc1` [Example 243, 4-phenyl-N-(4-(5-(pyridin-4-yl)pyrimidin-4-yloxy)phenyl)phthalazin-1-amine], the IC50 on AuroraA-TPX2 (setting [3]) and at AuroraB (setting [4]) was not above 0.1 µM each time. For `CCc1cc(-c2ccccc2)nnc1Nc1ccc(Oc2ncccc2-c2ccnc(N)c2)nc1` [compound 444], the IC50 was 0.1 to 0.5 µM on AuroraA-TPX2 (setting [1]) and not above 0.1 µM on AuroraB (setting [2]). For `COc1cccc(-c2nnc(Nc3ccc(Oc4ncccc4-c4ccnc(N)n4)cc3)c3ccccc23)c1` [compound 438], in that order: not above 0.1 µM and not above 0.1 µM. Take `COc1ccccc1-c1nnc(Nc2ccc(Oc3ncccc3-c3ccnc(N)c3)cc2)c2ccccc12` [compound 442]: the IC50 at AuroraA-TPX2 (setting [5]) came to 0.375 µM; on AuroraB (setting [6]), 0.033 µM. `Cc1cc(-c2ccccc2)nnc1Nc1ccc(Oc2ncccc2-c2ccnc(NCCCO)n2)cc1` [compound 429]: the IC50 at AuroraA-TPX2 (setting [1]) and at AuroraB (setting [2]) was not above 0.1 µM throughout.

In the case of `COc1ccccc1-c1nnc(Nc2ccc(Oc3ncccc3-c3ccnc(N)n3)cc2)c2ccccc12` [compound 437], the IC50 at AuroraA-TPX2 (setting [1]) and on AuroraB (setting [2]) was not above 0.1 µM throughout. On to `CCCc1cc(-c2ccccc2)nnc1Nc1ccc(Oc2ncccc2-c2ccnc(N)n2)cc1` [compound 445], for which the IC50 amounted to 0.0235 µM at AuroraA-TPX2 (setting [5]) and 0.0031 µM on AuroraB (setting [6]). Take `O=c1cc(-c2cccnc2Oc2ccc(Nc3nnc(-c4ccccc4)c4ccccc34)cc2)cc[nH]1` [compound 432]: the IC50 on AuroraB (setting [2]) lay within 0.5 to 2.5 µM. Turning to `CNc1nccc(-c2cccnc2Oc2ccc(Oc3nnc(-c4ccccc4)c4ccccc34)cc2)n1` [Example 244, N-methyl-4-(2-(4-(4-phenylphthalazin-1-yloxy)phenoxy)pyridin-3-yl)pyrimidin-2-amine], the IC50 at AuroraA-TPX2 (setting [3]) and at AuroraB (setting [4]) was not above 0.1 µM each time.

`Cc1csc(-c2cc(C)c(Nc3ccc(Oc4ncccc4-c4ccnc(N)c4)cc3)nn2)n1` [compound 434]: the figures for the IC50 at AuroraA-TPX2 (setting [5]) and at AuroraB (setting [6]) were 0.0986 µM and 0.0095 µM, respectively. On to `COCc1cccc(-c2nnc(Nc3ccc(Oc4ncccc4-c4ccnc(N)n4)cc3)c3ccccc23)n1` [compound 298], for which the IC50 on AuroraA-TPX2 (setting [1]) and at AuroraB (setting [2]) was not above 0.1 µM each time. As for `Cc1cc(-c2ccccc2)nnc1Nc1ccc(Oc2ncccc2-c2ccnc(NCCCC(=O)O)n2)cc1` [compound 430], the IC50 at AuroraA-TPX2 (setting [1]) and at AuroraB (setting [2]) was not above 0.1 µM throughout. Regarding `Cc1csc(-c2cc(C)c(Nc3ccc(Oc4ncccc4-c4ccnc(N)c4)cc3)nn2)c1` [compound 419], the IC50 at AuroraA-TPX2 (setting [1]) and on AuroraB (setting [2]) was not above 0.1 µM in each case. For `COc1cccc(-c2ccncc2)c1Oc1ccc(Nc2nnc(-c3ccccc3)c3ccccc23)cc1` [compound 448], the results for the IC50 on AuroraA-TPX2 (setting [5]) and at AuroraB (setting [6]) were 0.11 µM and 0.0096 µM, respectively. With `Oc1cccc(-c2ccncc2)c1Oc1ccc(Nc2nnc(-c3ccccc3)c3ccccc23)cc1` [compound 447], the IC50 at AuroraB (setting [2]) fell in the range of 0.5 to 2.5 µM. For the compound `Cc1cccc(-c2nnc(Nc3ccc(Oc4ncccc4-c4ccnc(N)n4)cc3)c3ccccc23)n1` [compound 271], the IC50 at AuroraA-TPX2 (numeric values, read-out: AurA/TPX2_IC50_IP (Avg)) came out at 0.0243 µM; at AuroraB (numeric values, read-out: AurB_IC50_IP (Avg)), 0.001 µM.

Consider `Cc1cc(-c2ccccc2)nnc1Nc1ccc(Oc2ncccc2-c2ccnc(N)c2)cc1` [compound 418], for which the IC50 on AuroraA-TPX2 (setting [1]) and at AuroraB (setting [2]) was not above 0.1 µM in each case.

As for `CC(C)c1nnc(Nc2ccc(Oc3ncccc3-c3ccnc(N)n3)nc2)c2ccccc12` [compound 269], the IC50 on AuroraA-TPX2 (setting [1]) was 0.1 to 0.5 µM. Turning to `COc1cccc(-c2cc(C)c(Nc3ccc(Oc4ncccc4-c4ccnc(N)n4)cc3)nn2)c1` [compound 443], the IC50 on AuroraA-TPX2 (setting [1]) and on AuroraB (setting [2]) was not above 0.1 µM in each case. Take `CNc1cc(-c2cnccc2Oc2ccc(Nc3nnc(-c4ccccc4)c4ccccc34)cc2)ccn1` [Example 242, N-(4-(3-(2-(methylamino)pyridin-4-yl)pyridin-4-yloxy)phenyl)-4-phenylphthalazin-1-amine]: the IC50 at AuroraA-TPX2 (setting [3]) and on AuroraB (setting [4]) was not above 0.1 µM each time. For `CCc1cc(-c2ccccc2)nnc1Nc1ccc(Oc2ncccc2-c2ccnc(N)n2)cc1` [compound 435], the IC50 at AuroraA-TPX2 (setting [1]) and on AuroraB (setting [2]) was not above 0.1 µM in each case. Regarding `COc1cccc(-c2nnc(Nc3ccc(Oc4ncccc4-c4ccnc(N)c4)cc3)c3ccccc23)c1` [compound 441], the IC50 on AuroraA-TPX2 (setting [1]) and at AuroraB (setting [2]) was 0.1 to 0.5 µM in each case.

On to `O=C(O)CCCNc1nccc(-c2cccnc2Oc2ccc(Nc3nnc(-c4ccccc4)c4ccccc34)cc2)n1` [compound 427], for which the IC50 at AuroraA-TPX2 (setting [1]) and on AuroraB (setting [2]) was not above 0.1 µM each time. `Cc1csc(-c2nnc(Nc3ccc(Oc4ncccc4-c4ccnc(N)c4)cc3)c3ccccc23)c1` [compound 416]: the IC50 on AuroraA-TPX2 (setting [5]) stood at 0.0541 µM; on AuroraB (setting [6]), 0.0145 µM. On the same counts, the results for `CCc1cc(-c2ccccc2)nnc1Nc1ccc(Oc2ncccc2-c2ccnc(N)c2)cc1` [compound 420] are 0.0568 µM and 0.0071 µM.

Regarding `Nc1cc(-c2cccnc2Oc2ccc(Nc3nnc(-c4ccccc4)c4ccccc34)cn2)ccn1` [compound 431], the IC50 at AuroraA-TPX2 (setting [1]) and on AuroraB (setting [2]) was not above 0.1 µM in each case. For the compound `N#Cc1cccc(-c2ccncc2)c1Oc1ccc(Nc2nnc(-c3ccccc3)c3ccccc23)cc1` [compound 436], the IC50 at AuroraA-TPX2 (setting [1]) was 0.1 to 0.5 µM; on AuroraB (setting [2]), not above 0.1 µM. For `COCc1cc(-c2ccccc2)nnc1Nc1ccc(Oc2ncccc2-c2ccnc(N)n2)cc1` [compound 446], in that order: not above 0.1 µM and not above 0.1 µM.

Regarding `CCc1cc(-c2ccccc2)nnc1Nc1ccc(Oc2ncccc2-c2ccnc(N)n2)nc1` [compound 439], the IC50 on AuroraA-TPX2 (setting [1]) and on AuroraB (setting [2]) was not above 0.1 µM each time.
